Non-standard residues stand in square brackets, D forms with d. Residues, ends and D or L forms follow the SMILES beside them. ξ: configuration not given here. *: point of attachment. Boc = CC(C)(C)OC(=O)*; ξA = CC(N)C(=O)O; NHNH2 = NN*

`CCOc1cccc(-c2nc(-c3ccccc3COC(=O)OCc3ccccc3-c3n[nH]c(-c4cccc(OCC)c4)n3)n[nH]2)c1` had a melting point of 143 to 145 °C. The compound `Cc1nccc(OCc2ccccc2)c1OCc1ccccc1` had a melting point of 85 to 87 °C. With `COc1ccc(N2C(=O)C(O[Si](C(C)C)(C(C)C)C(C)C)C2c2ccc(F)cc2)cc1` (centres undefined), the melting point was in the range of 121 to 122 °C.

`CC(C)(C)OC(=O)NC(C)(C)c1ccc(-c2ccno2)cc1` came in with a melting point of 145 to 146 °C. In turn, `O=C(CS(=O)(=O)c1ncc(Br)cn1)c1ccccc1` came in with a melting point of 95 °C. Under `CCONCCCC=C1C(=O)CC(c2ccc(Cl)cc2)CC1=O` (centres undefined) stands 77 °C; under `CC(/C=C/C=C(\C)C1=Cc2cc(C(C)(C)C)cc(C)c2OC1)=C\C(=O)O`, 227 to 228 °C; under `CNC(=O)CC(S)C(CC(C)C)C(=O)NC(Cc1ccc(OC)cc1)C(=O)NC` (centres undefined), 175 to 190 °C. In turn, `COc1cc(OCCCN2CCC(c3n[nH]c4cc(F)ccc34)CC2)ccc1C(C)=O` returned a melting point of 202 to 204 °C. The same measure for `O=C(NCCF)c1ccc(CCN2CC=C(c3c[nH]c(-c4ccc(F)cc4)c3-c3ccncc3)CC2)cc1`: 209 to 211 °C; for `NC(=O)c1cc2c3ccccc3n(Cc3ccccc3)c2s1`: 207 °C. Consider `COC(=O)NC[C@H]1CN(c2ccc3c(c2)CCCc2cnoc2-3)C(=O)O1`, for which the melting point fell in the range of 166 to 168 °C. For `O=C(c1nc(Cl)c(Cl)[nH]1)N1CCOCC1`, the melting point is 215 °C. For `CCn1ncc2c(NCC3CCCCC3)c3ccc([N+](=O)[O-])cc3nc21`, the melting point was 205 to 207 °C. Compound `CSc1ncc(CNc2ccccc2Cl)c(Nc2ccccc2)n1` registered a melting point of 131 to 132 °C. Under `CC1C=C(c2cccc(C(F)(F)F)c2)n2ncc(C#N)c2N1C(=O)CCl` (centres undefined) stands 160 to 163 °C; under `COc1ccc(C(=O)c2ccc(OCC(=O)O)c(Cl)c2Cl)cc1`, 158 to 159 °C. In turn, `C1=C(c2csc3ccccc23)CCN(Cc2ccccc2)C1` yielded a melting point of 90 °C. Under `NCc1ccc(N2CCN(c3ccncc3)CC2)cc1` stands 168 to 170 °C; under `COCc1nc(N)nc(N)c1-c1cccc(Cl)c1Cl`, 237 to 240 °C.

`CCc1cc(O)c(C(C)=O)c(OC2OC(COC(C)=O)C(OC(C)=O)C(OC(C)=O)C2OC(C)=O)c1` (centres undefined) gave a melting point of 125 to 127 °C. Compound `CC(C)n1nc(-c2c(-c3ccccc3)nn3ccc(C(=O)NC(C)(C)C)cc23)ccc1=O` had a melting point of 200 to 201 °C. In turn, `OCC(O)Cc1cccc(Cc2ccccc2)c1OCc1ccccc1` (centres undefined) returned a melting point of 55 to 58 °C. In turn, `CCCCc1ncc(C=CC(=O)O)n1Cc1ccccc1Cl` registered a melting point of 178 to 179 °C.

Compound `COc1cc2ncnc(N3CCN(C(=O)Nc4ccc(OC(C)C)cc4)CC3)c2cc1OC` returned a melting point of 220 to 222 °C. The same measure for `O=C1CCC2C=C(c3cccnc3)C=C(F)C2N1` (centres undefined): 203 °C; for `CCOc1ccc(F)cc1OCCN1C(=O)c2ccccc2C1=O`: 119 to 121 °C.

`O=C(CC=C(Cl)Cl)Oc1ccc(F)cc1` had a melting point of 47 to 50 °C. Regarding `O=C1CCn2cc(C(=O)NCc3ccc(Cl)cc3)c(=O)c3cc(CN4CCOCC4)cc(c32)N1`, the melting point was in the range of 235 to 240 °C.

In the case of `Nc1ccc2c(c1)OCC(=S)N2`, the melting point fell in the range of 205 to 211 °C. In turn, `O=C1N=NC(=O)c2c1[nH]c1cc(Cl)cc(Cl)c21` registered a melting point greater than 300 °C. For the compound `COc1cccc(CNC(=O)C(C)(C)COc2cccc3nc(C)c(C(=O)O)c(N)c23)c1`, the melting point lay within 172 to 174 °C. Consider `COc1cc(C)c(S(=O)(=O)c2ccccc2)cc1OC`, for which the melting point was 162 to 163 °C.

`CCN(CC)C(=S)NC1C=C2c3cccc4c3c(cn4CC)CC2N(C)C1` (centres undefined) returned a melting point of 108 °C. Compound `CCOC(=O)c1cn(Cc2ccccc2)nc1OCc1ccc(OCc2nc(-c3ccco3)oc2C)c(OCC)c1` returned a melting point of 121 to 122 °C. `COC(=O)Cc1cc(OC)ccc1OCc1ccc(OCc2nc(-c3ccccc3)oc2C)cc1` yielded a melting point of 160 to 161 °C. The same measure for `CN1C2C=C(c3ccc(F)cc3)CC1CC2` (centres undefined): 62 to 63 °C; for `COC(=O)c1cc2ccsc2s1`: 101 to 105 °C. `CSc1cccc(-c2ccccc2)c1S(N)(=O)=O` returned a melting point of 167 to 168 °C.

On to `O=C(O)CNC(=O)Cc1ccccc1S`, for which the melting point lay within 91 to 93 °C. Under `CC1=CC(=O)C(C(=O)C=Cc2cccs2)C(=O)O1` (centres undefined) stands 162 to 164 °C. Turning to `CC(F)(F)c1cccc(C[C@@H](NC(=O)c2cccc3c2C=CCCC3)[C@@H](O)c2ccc(F)cc2)c1` (racemic), the melting point is 170 to 171 °C. Regarding `Nc1nc(-c2cc(Cl)ccc2Cl)nc(N2CC(O)CC2C(=O)O)n1` (centres undefined), the melting point was 138 to 145 °C.

Consider `COc1cc2c(cc1F)C(=Cc1ccc(SC)cc1)C(C)=C2CC(=O)O`, for which the melting point lay in the range of 172 to 174 °C. In the case of `COc1ccc(CC(C(=O)O)N(CCCNC(=O)OC(C)(C)C)C(=O)CBr)cc1` (centres undefined), the melting point lay within 79 to 81 °C. Consider `BrC(Br)Cc1ccc(OCc2ccccc2)cc1`, for which the melting point was 97 to 98 °C.

In the case of `N#Cc1ccc(N2CCc3nc4cc(Cl)ccc4c(Cl)c3C2)nc1`, the melting point was 171 to 173 °C. For `CC1Cc2ccc(Br)cc2C(c2ccc(N)cc2)=NN1C1CC1` (centres undefined), the melting point was in the range of 113 to 116 °C.

In turn, `CCCCCCCCCCc1ccc(CCC(N)(CO)CCO)cc1` (centres undefined) showed a melting point of 69 to 72 °C. `CN(C)C(=O)c1cccnc1C(=O)c1cccc(C(F)(F)F)c1` gave a melting point of 100 to 103 °C. Turning to `CC(C)(C)c1ccc(S(=O)(=O)CC(=O)N=C=O)cc1`, the melting point came to 163 °C. Under `Nc1ccccc1CSc1ncc(C(F)(F)F)cc1Cl` stands 98 to 102 °C; under `Cc1ccc(C)n1Nc1ccc(N2CC(C)OC(C)C2)nn1` (centres undefined), 147 to 148 °C; under `Cc1cc(NC(C)(C)C)nc(Cl)c1C#N`, 109 °C. Compound `Oc1cc(-c2ccc(F)cc2)nc2ccsc12` registered a melting point of 316 to 318 °C. Consider `Nc1ccnc2cc(Br)cnc12`, for which the melting point lay within 168 to 169 °C. `COCc1cc(Oc2ccc3c(C(=O)OC)cccc3c2)ncn1` came in with a melting point of 87 to 88 °C. The same measure for `O=C1CCC(c2nc(-c3ccccc3)c(-c3ccccc3)o2)N1` (centres undefined): 145 to 147 °C; for `COc1cc(C(=O)NS(=O)(=O)c2ccccc2C)ccc1Cc1cccc2ccc(CCCC(=O)N(C)C)cc12`: 166 to 168 °C; for `CC(NC(=O)CNC(=O)CNC(=O)CNC(=O)OC(C)(C)C)C(=O)NCC(=O)NN` (centres undefined) (Boc-GGG[ξA]G-NHNH2): 221 to 223 °C. The compound `O=C(/C=C/c1cccnc1)NCCc1ccccc1O` yielded a melting point of 170 to 172 °C. `COC(=O)c1ccc2nc(Sc3nnc(C)s3)c(C(F)(F)F)nc2c1` had a melting point of 151 to 152 °C. For `NS(=O)(=O)c1ccc(NN=C2C(=O)Nc3cc(Oc4ccccc4)ccc32)cc1`, the melting point was greater than 250 °C.

Compound `Cc1nc(CCOCCCCCCNCC(O)c2cc(Cl)c(N)c(Cl)c2)cs1` (centres undefined) displayed a melting point of 67 to 69 °C. In the case of `COC(=O)c1cc(NC(C)=O)c(F)c(-c2ccc(Cl)c(OC)c2F)n1`, the melting point fell in the range of 189 to 191 °C.

`CN1C(=O)N(c2cc(Cl)cc(Cl)c2)C(=O)[C@]12CN(CC(=O)O)C[C@H]2c1ccc(C#N)cc1` (relative stereo) gave a melting point of 220 °C.

`COc1cc2cc(OS(=O)(=O)C(F)(F)F)cnc2cc1OC` came in with a melting point of 82.5 to 84 °C. In turn, `Cc1sc2c(c1C)C(c1ccc(Cl)cc1)=NC(CC(=O)Nc1ccncc1)c1nnc(C)n1-2` (centres undefined) gave a melting point of 237 to 239 °C. On to `O=Cc1ccc(Oc2ccc(F)cc2)cc1`, for which the melting point lay in the range of 69 to 73 °C. Under `Cc1oncc1C(=O)Nc1ccc(NC(=O)CBr)cc1` stands 179 °C; under `Cc1cc(Nc2ccc(Cl)cc2)nc(-n2cc3ccccc3n2)n1`, 225 to 227 °C; under `CCN(CC)CCCOc1ccc(C(=O)c2c(-c3ccc(OC)cc3)oc3ccccc23)cc1`, 102 to 110 °C. In turn, `CCCCCc1c(C(C)C)nc(C(C)C)c(CO)c1-c1ccc(F)c(C(O)c2ccc(F)cc2)c1` (centres undefined) returned a melting point of 118 to 120 °C. With `O[C@H]1CC[C@H](Nc2nccc(-c3n[nH]c4c(C(F)(F)F)cccc34)n2)CC1`, the melting point is 266 to 270 °C.

Compound `COc1ccc(CC(=O)O)c(OCCc2ccccc2)c1` gave a melting point of 107 to 108 °C. Consider `COc1cc(SC)c(C)cc1OCCBr`, for which the melting point fell in the range of 66 to 67 °C. As to `CC(C)(C)OC(=O)c1ccc(CBr)cc1`, the melting point was 53.4 °C.

`O=S(=O)(Cl)Oc1cccc2cnccc12` gave a melting point of 152 to 155 °C.

As for `CCCc1c(OCCCCC(=O)c2ccc3cc(O)c(O)cc3c2)ccc(C(=O)O)c1O`, the melting point was 213 to 214 °C. `CN1C(=O)CC=C2c3ccc(Cl)cc3CCC21` (centres undefined) gave a melting point of 99 °C.

Turning to `NC(=O)C(c1cccc(F)c1)N(C(=O)c1cccn2ccnc12)C(F)(F)F` (centres undefined), the melting point was 118 to 120 °C. The compound `COC1OCC[C@@H]1NC(=O)[C@H](CC(C)C)NC(=O)CNC(=O)C(C)(C)Oc1ccc2c(c1)Nc1ccccc1S2` (some centres undefined) had a melting point of 100 to 104 °C.

Consider `COC(=O)C(C)(C)CCCCCOc1ccc(N2C(=O)c3ccccc3C2=O)cc1`, for which the melting point was 82 to 83 °C. The same measure for `COc1ccc(C2(O)C=CNC(=O)N2)cc1OC1CC2CCC1C2` (centres undefined): 167 to 169 °C; for `Nc1ccc2[nH]c(-c3ccccc3)cc2c1`: 220 °C. Under `CC(Sc1nc2ccc(N)cc2s1)C(=O)NCCN(C)Cc1ccc(Cl)c(Cl)c1` (centres undefined) stands 97 to 100 °C; under `O=C(O)C(O)c1cccc(OCc2ccccc2Cl)c1OCc1ccccc1Cl` (centres undefined), 98 to 100 °C; under `CC(C)(C)C(C)(C)Nc1nc(NC(C)(C)C(C)(C)C)nc(N2CC3CCC(CC3)C2)n1`, 282 to 284 °C.

Regarding `COCn1ccnc1C(O)(c1ccc(F)cc1)c1ccc(Cl)cc1Cl` (centres undefined), the melting point was 179 °C.

The record behind these values is a melting point compilation (Tetko et al.; mined from patent text by program, amines drawn as free bases though some values may be those of a salt).
